# Measured values as given in patent US9687522B2, “Methods of treating a subject afflicted with an autoimmune disease using predictive biomarkers of clinical response to glatiramer acetate therapy in multiple sclerosis” (TEVA PHARMACEUTICAL INDUSTRIES, LTD., priority 2010, dated 2017).
# What was measured:
# caspase-1 = assay: Serum caspase-1 by ELISA in GA-treated MS patients; format: in vivo, human
# Source text: (§1) Approximately 60 cc of blood was obtained by venipuncture from each MS patient pre-treatment and at successive time points during treatment (3 months, 6 months, 9-12 months and 24 months). PBMC were purified using Ficoll-Hypaque gradients as described in the supplier's protocol (ICN Biomedicals Inc. Ohio, USA). Samples from collaborating centers were sent via overnight FedEx™ delivery at room temperature and processed immediately upon arrival.
# (§2) Interleukin-18 and caspase-1 levels were detected by human ELISA kits (Sandwich ELISA, Bender Nedaystems, USA). The sensitivity of the ELISA was 9.2 and 3.3 pg/ml for IL-18 and caspase-1 respectively. TGF-β, TNF-α, IL-4, IFN-γ, IL-17 and IL-10 levels were detected by human ELISA kits from ebioscience (San Diego Calif., 92121 USA). The sensitivity of the ebioscience kits were 60 pg/ml, 4 pg/ml, 2 pg/ml, 4 pg/ml, 4 pg/ml and 2 pg/ml respectively. BDNF was detected by the Human BDNF ELISA kit from Chemicon International (catalog #CYT306). The sensitivity of the BDNF ELISA was 7.8 pg/ml. […] Duplicates should be within 20% of the mean.
# IFN-γ [1] = assay: Serum IFN-γ by ELISA in GA-treated MS patients; format: in vivo, human
# Source text: as §1, §2
# TNF-α = assay: Serum TNF-α by ELISA in GA-treated MS patients; format: in vivo, human
# Source text: as §1, §2
# IL-10 = IL-10 by ELISA in ex-vivo PBMC supernatant of GA-treated MS patients; format: cell-based, human
# Method: as §1
# (§3) 2×10^5 PBMC/well were seeded in 96 well U-bottom micro titer plate in the absence of antigen (unstimulated condition) (US) or the presence of GA at 40 and 100 μg/ml (Teva Pharmaceutical Industries, Ltd., Israel), tetanus toxoid (TT 5 μg) obtained from UMASS (University of Mass, Worcester, Mass.). The latter was used as a control antigen. Supernatants were collected from cultured cells at days 1, 3 and 5 for various assays. After 5 days, 1 μCi ^3H-thymidine was added. Cells were harvested 18 hours later using TOMTEC cell harvester (TOMTEC, Hamden Conn.). Incorporated radioactivity was measured using a liquid Scintillation counter (Wallac MicroBeta Trilux, PerkinElmer, Boston, Mass.).
# as §2
# IFN-γ [2] = assay: IFN-γ ELISPOT in ex-vivo PBMC of GA-treated MS patients; format: cell-based, human; details: CD3/CD28 stimulated PBMC
# Source text: as §1
# (§4) Human IFN-γ (Th1 indicator) and IL-4 (Th2 indicator) were measured by the ELISPOT assay according to the manufacturer's protocol (BD Biosciences, San Diego, Calif., USA). Briefly, ELISPOT plates (PVDF plate, Millipore Corporation, MA, USA) were coated with 100 μl/well of 5 μg/ml capture antibody at 4° C. over night. The plates were then washed with PBS, and incubated with 200 μl/well of blocking solution (culture medium) for 2 hours. PBMC (2×10^5 cells/well for IFN-γ and 4×10^5 cells/well for IL-4 detection) and antigen (GA 40 and 100 μg/ml, TT 5 μg/ml, CD3Ab (2.5 μg/ml)/CD28 Ab (1 μg/ml)) was added and cultured overnight at 37° C. in a 5% CO2 incubator. Samples were tested in triplicate wells in response to each antigen. After overnight culture, the plates were washed twice with deionized water and three times with PBS, then incubated with 100 μl of 2.0 μg/ml biotinylated antibody for 2 hours at room temperature. The plates were then washed three times with wash buffer (0.05% Tween-20 PBS), and incubated with 100 μl of 1:100 dilution of Avidin-HRP for 1 hour at room temperature and washed three times with wash buffer. Finally 100 μl of AEC (3-amino-9-ethyl-carbazole) substrate was added and the reaction was stopped by washing plates with distilled water. Spots were counted and analyzed by CTL Analyzers LLC ELISPOT Plate Reader (Cleveland, Ohio, USA).
# IL-4 = IL-4 ELISPOT in ex-vivo PBMC of GA-treated MS patients; format: cell-based, human; design: unit not given here; details: CD3/CD28 stimulated PBMC
# Source text: as §1, §4
# IL-18 = IL-18 by ELISA in ex-vivo PBMC supernatant of GA-treated MS patients; format: cell-based, human; details: both groups
# Method: as §1
# as §3, with “Cells were harvested 18 hours later using TOMTEC cell harvester (TOMTEC, Hamden Conn.).” left out
# (§5) Interleukin-18 and caspase-1 levels were detected by human ELISA kits (Sandwich ELISA, Bender Nedaystems, USA). […] TGF-β, TNF-α, IL-4, IFN-γ, IL-17 and IL-10 levels were detected by human ELISA kits from ebioscience (San Diego Calif., 92121 USA). […] BDNF was detected by the Human BDNF ELISA kit from Chemicon International (catalog #CYT306). […]
# BDNF = BDNF by ELISA in supernatant of GA-stimulated PBMC; format: cell-based, human
# Method: as §1
# as §3, with “Cells were harvested 18 hours later using TOMTEC cell harvester (TOMTEC, Hamden Conn.).” left out
# as §5
# RRMS subjects = details: cited from earlier work
# [3] = GA 20 mg, largest controlled study
substance,measurement,setting,value
Glatiramer acetate [GA],Serum caspase-1 level,"caspase-1; HR/NR, 3 mo",284 ± 35 pg/mL
same,Serum caspase-1 level,"caspase-1; HR/NR, 6 mo",302 ± 42 pg/mL
same,Serum caspase-1 level,"caspase-1; HR/NR, 9-12 mo",255 ± 21 pg/mL
same,Serum caspase-1 level,"caspase-1; HR/NR, 24 mo",276 ± 7 pg/mL
same,Serum caspase-1 level,"caspase-1; HR/NR, Pre-Rx",300 ± 29 pg/mL
same,Serum caspase-1 level,"caspase-1; R, 3 mo",279 ± 23 pg/mL
same,Serum caspase-1 level,"caspase-1; R, 6 mo",187 ± 21 pg/mL
same,Serum caspase-1 level,"caspase-1; R, 9-12 mo",288 ± 12 pg/mL
same,Serum caspase-1 level,"caspase-1; R, 24 mo",282 ± 11 pg/mL
same,Serum caspase-1 level,"caspase-1; R, Pre-Rx",325 ± 26 pg/mL
same,"Δ Caspace 6 months, Median (Non-Responders)","caspase-1; serum, change from baseline",−19
same,"Δ Caspace 6 months, Median (Responders)","caspase-1; serum, change from baseline",−142.5
same,Serum IFN-γ level,"IFN-γ [1]; HR/NR, 3 mo",27 ± 1.45 pg/mL
same,Serum IFN-γ level,"IFN-γ [1]; HR/NR, 6 mo",26 ± 1.53 pg/mL
same,Serum IFN-γ level,"IFN-γ [1]; HR/NR, 9-12 mo",52 ± 5.8 pg/mL
same,Serum IFN-γ level,"IFN-γ [1]; HR/NR, 24 mo",45 ± 5.3 pg/mL
same,Serum IFN-γ level,"IFN-γ [1]; HR/NR, Pre-Rx",25 ± 1.7 pg/mL
same,Serum IFN-γ level,"IFN-γ [1]; R, 3 mo",25 ± 2.1 pg/mL
same,Serum IFN-γ level,"IFN-γ [1]; R, 6 mo",24 ± 1.9 pg/mL
same,Serum IFN-γ level,"IFN-γ [1]; R, 9-12 mo",48 ± 6.3 pg/mL
same,Serum IFN-γ level,"IFN-γ [1]; R, 24 mo",45 ± 3.8 pg/mL
same,Serum IFN-γ level,"IFN-γ [1]; R, Pre-Rx",29 ± 2.3 pg/mL
same,Serum TNF-α level,"TNF-α; HR, 3 mo",56 ± 5.0 pg/mL
same,Serum TNF-α level,"TNF-α; HR, 6 mo",55 ± 7.0 pg/mL
same,Serum TNF-α level,"TNF-α; HR, 9-12 mo",59 ± 5.18 pg/mL
same,Serum TNF-α level,"TNF-α; HR, 24 mo",52.4 ± 9.64 pg/mL
same,Serum TNF-α level,"TNF-α; HR, Pre-Rx",51 ± 3.0 pg/mL
same,Serum TNF-α level,"TNF-α; R, 3 mo",47 ± 3.3 pg/mL
same,Serum TNF-α level,"TNF-α; R, 6 mo",44 ± 4.6 pg/mL
same,Serum TNF-α level,"TNF-α; R, 9-12 mo",54 ± 4.24 pg/mL
same,Serum TNF-α level,"TNF-α; R, 24 mo",50.13 ± 1.5 pg/mL
same,Serum TNF-α level,"TNF-α; R, Pre-Rx",57 ± 3.6 pg/mL
same,"Δ TNF-alpha 6 months, Median (Non-Responders)","TNF-α; serum, change from baseline",1
same,"Δ TNF-alpha 6 months, Median (Responders)","TNF-α; serum, change from baseline",−14
same,Supernatant IL-10 level,"IL-10; HR/NR, 3 mo",160 ± 65 pg/mL
same,Supernatant IL-10 level,"IL-10; HR/NR, 6 mo",153 ± 69 pg/mL
same,Supernatant IL-10 level,"IL-10; HR/NR, 9-12 mo",181 ± 22 pg/mL
same,Supernatant IL-10 level,"IL-10; HR/NR, 24 mo",200 ± 59 pg/mL
same,Supernatant IL-10 level,"IL-10; HR/NR, Pre-Rx",143 ± 61 pg/mL
same,Supernatant IL-10 level,"IL-10; R, 3 mo",200 ± 65 pg/mL
same,Supernatant IL-10 level,"IL-10; R, 6 mo",310 ± 64 pg/mL
same,Supernatant IL-10 level,"IL-10; R, 9-12 mo",249 ± 70 pg/mL
same,Supernatant IL-10 level,"IL-10; R, 24 mo",255 ± 45 pg/mL
same,Supernatant IL-10 level,"IL-10; R, Pre-Rx",170 ± 60 pg/mL
same,"IFN-γ expression (ELISPOT, mean number of spots)","IFN-γ [2]; HR/NR, 3 mo",206 ± 24
same,"IFN-γ expression (ELISPOT, mean number of spots)","IFN-γ [2]; HR/NR, 6 mo",233 ± 26
same,"IFN-γ expression (ELISPOT, mean number of spots)","IFN-γ [2]; HR/NR, 9-12 mo",218 ± 34
same,"IFN-γ expression (ELISPOT, mean number of spots)","IFN-γ [2]; HR/NR, 24 mo",186 ± 35
same,"IFN-γ expression (ELISPOT, mean number of spots)","IFN-γ [2]; HR/NR, Baseline",192 ± 26
same,"IFN-γ expression (ELISPOT, mean number of spots)","IFN-γ [2]; R, 3 mo",182 ± 18
same,"IFN-γ expression (ELISPOT, mean number of spots)","IFN-γ [2]; R, 6 mo",150 ± 15
same,"IFN-γ expression (ELISPOT, mean number of spots)","IFN-γ [2]; R, 9-12 mo",110 ± 19
same,"IFN-γ expression (ELISPOT, mean number of spots)","IFN-γ [2]; R, 24 mo",86 ± 14
same,"IFN-γ expression (ELISPOT, mean number of spots)","IFN-γ [2]; R, Baseline",197 ± 28
same,IL-4 expression (ELISPOT),"IL-4; HR/NR, 3 mo",14 ± 4
same,IL-4 expression (ELISPOT),"IL-4; HR/NR, 6 mo",20 ± 6
same,IL-4 expression (ELISPOT),"IL-4; HR/NR, 9-12 mo",23 ± 5
same,IL-4 expression (ELISPOT),"IL-4; HR/NR, 24 mo",21 ± 3.5
same,IL-4 expression (ELISPOT),"IL-4; HR/NR, Baseline",39 ± 9
same,IL-4 expression (ELISPOT),"IL-4; R, 3 mo",44 ± 7.4
same,IL-4 expression (ELISPOT),"IL-4; R, 6 mo",45 ± 7.3
same,IL-4 expression (ELISPOT),"IL-4; R, 9-12 mo",39 ± 5.8
same,IL-4 expression (ELISPOT),"IL-4; R, 24 mo",36 ± 7.2
same,IL-4 expression (ELISPOT),"IL-4; R, Baseline",35 ± 5.9
same,"Supernatant IL-18 levels, change during GA treatment",IL-18,did not show any significant changes from baseline
same,BDNF production with GA used as ex-vivo stimulus,BDNF; GA versus TT as stimulus of PBMC,slightly higher level compared to TT
same,supernatant BDNF levels from GA-stimulated PBMCs,"BDNF; GA-R group, 3 months, p=0.01, not in the GA HR/NR group",significant increase at 3 months during treatment compared to baseline
same,median cumulative number of Gd-enhancing lesions,"RRMS subjects; 20 mg group, over 9 months of treatment",11 lesions
same,relapse rate,RRMS subjects; [3],1.34
same,relapse rate reduction versus placebo,RRMS subjects; [3],32%
same,tolerability,RRMS subjects; daily standard dose of 20 mg,generally well tolerated
